Source: article PMC12207370, “Macrocyclic Peptide Probes for Immunomodulatory Protein CD59: Potent Modulators of Bacterial Toxin Activity and Antibody‐Dependent Cytotoxicity” (Angewandte Chemie (International Ed. in English), 2025)
Read-outs that look alike come from different tables or passages of the source. Peptide text beside a SMILES is read from it.

Target: T1, CD59 (Homo sapiens, UniProt P13987)
T1 construct: Recombinant soluble human CD59 with an additional C-terminal cysteine residue
T1 sequence (P13987 26-102 limits assumed): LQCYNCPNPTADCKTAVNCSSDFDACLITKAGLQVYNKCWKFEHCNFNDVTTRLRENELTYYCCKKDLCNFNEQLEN
Assay: SPR (Biacore S200) binding to immobilised biotinylated CD59
Excerpt: To identify which of these peptides bound CD59 most tightly, we used a Biacore S200 surface plasmon resonance (SPR) platform to investigate CD59 affinity (Figure 2b), using a known protein binding partner of CD59 (rILYd4) as a benchmark. Four 13‐mer macrocyclic peptides and one 14‐mer macrocyclic peptide were identified with a dissociation constant (K D) lower than that of rILYd4. Considering their fourfold lower molecular weight, these peptides bind with up to 19‐fold greater efficiency compared to rILYd4 (Figure 2b).
Equipment: SPR analysis was performed on a Cytiva Biacore S200. All buffers were prepared using ultra-pure water from a Millipore Elix Q-Gard purification system. Solutions and buffers were filtered with a 0.22 μm filter and degassed prior to use. The assays were performed on Series S streptavidin (SA) sensor chip (Cytiva). PBS-P+ buffer 10X (0.2 M phosphate buffer with 27 mM KCl, 1.37 M NaCl and 0.5% Surfactant P20 (Tween 20)) was used for the preparation of the assay running buffer (PBS-P+ 1X).
Immobilisation of CD59-biotin: Biotinylated CD59 was immobilised on the surface of a SA chip by non-covalent capture (biotin streptavidin interaction) as per the manufacturer’s instructions. The system was initially primed with running buffer and normalised using BIAnormalizing solution (70% (w/w) glycerol) (Cytiva). Before immobilising the protein, the surface was conditioned with three consecutive one-minute injections of 1 M NaCl in 50 mM NaOH. Biotinylated CD59 (0.5 µg/mL in running buffer) was flowed over the protein (active) channel for different contact times to achieve different immobilisation levels (600–1200 RU). After each protein injection, the needle and injection loop were washed using 50% isopropanol in 1 M NaCl and 50 mM NaOH. A reference channel was prepared by similar treatment; however, running buffer alone rather than CD59-biotin in running buffer was flowed over the chip the same way.
Interaction analysis: Multicycle kinetic and affinity approach was used for the analysis of peptides interactions with CD59. Two-fold serial dilutions of each peptide were prepared in running buffer and were flowed over both the ligand and reference channel using a flow rate (30 μL/min) at 25 °C. A zero concentration was added to each analyte series and three cycles of buffer were run between analytes to restore the baseline. The obtained sensorgrams were analysed using the embedded Biacore S200 Evaluation software. The data were normalised by subtracting RU values of the reference channel and zero concentration of the analyte series. Kinetic rate constants (kon and koff) were determined by fitting the normalised data using the built-in Kinetic analysis model (non-linear regression with a 1:1 Langmuir binding model), KD values were then calculated from the two rate constants ([…]). The KD values were determined again by fitting the normalised data using the built-in Affinity analysis model (1:1 Langmuir binding model).

[1] = Ala scan of CP-06, SPR, n = 1, read-out: KD
[2] = SPR, immobilized CD59, average of three technical replicates ± SEM, read-out: KD (nM) ± SEM

CC(C)[C@@H]1NC(=O)[C@H](CO)NC(=O)[C@H](C)NC(=O)[C@H](CCCNC(=N)N)NC(=O)[C@H](CC(N)=O)NC(=O)CNC(=O)[C@H](Cc2c[nH]c3ccccc23)NC(=O)[C@H]([C@@H](C)O)NC(=O)[C@H](Cc2c[nH]c3ccccc23)NC(=O)[C@H](CO)NC(=O)[C@@H](Cc2ccc(O)cc2)NC(=O)CSC[C@@H](C(N)=O)NC(=O)CNC(=O)[C@H](CCCNC(=N)N)NC1=O [CP-06-S9A] (HELM PEPTIDE1{[O=C(C[*:3])[*:2]].[dY].S.W.T.W.G.N.R.A.S.V.R.G.C.[am]}$PEPTIDE1,PEPTIDE1,1:R3-15:R3$$$V2.0)
Kd [1]: 22 nM

CC(C)[C@@H]1NC(=O)[C@H](Cc2ccccc2)NC(=O)[C@@H](Cc2ccc(O)cc2)NC(=O)CSC[C@@H](C(N)=O)NC(=O)CNC(=O)[C@H](CCCNC(=N)N)NC(=O)[C@H]([C@@H](C)O)NC(=O)[C@H](Cc2c[nH]cn2)NC(=O)[C@H](CC(=O)O)NC(=O)[C@H](CCCNC(=N)N)NC(=O)[C@H](CC(N)=O)NC(=O)CNC(=O)[C@H]([C@@H](C)O)NC1=O [CP-02] (HELM PEPTIDE1{[O=C(C[*:3])[*:2]].[dY].F.V.T.G.N.R.D.H.T.R.G.C.[am]}$PEPTIDE1,PEPTIDE1,1:R3-14:R3$$$V2.0)
Kd [2]: 15.3 ± 0.2 nM

CC(C)[C@@H]1NC(=O)[C@H](CO)NC(=O)[C@H](CO)NC(=O)[C@H](CCCNC(=N)N)NC(=O)[C@H](CC(N)=O)NC(=O)CNC(=O)[C@H](Cc2c[nH]c3ccccc23)NC(=O)[C@H]([C@@H](C)O)NC(=O)[C@H](Cc2c[nH]c3ccccc23)NC(=O)[C@H](CO)NC(=O)[C@@H](Cc2ccc(O)cc2)NC(=O)CSC[C@@H](C(N)=O)NC(=O)CNC(=O)[C@H](C)NC1=O [CP-06-R12A] (HELM PEPTIDE1{[O=C(C[*:3])[*:2]].[dY].S.W.T.W.G.N.R.S.S.V.A.G.C.[am]}$PEPTIDE1,PEPTIDE1,1:R3-15:R3$$$V2.0)
Kd [1]: 97 nM

CC(C)[C@@H]1NC(=O)[C@H](CO)NC(=O)[C@H](CO)NC(=O)[C@H](CCCNC(=N)N)NC(=O)[C@H](CC(N)=O)NC(=O)CNC(=O)[C@H](Cc2c[nH]c3ccccc23)NC(=O)[C@H](C)NC(=O)[C@H](Cc2c[nH]c3ccccc23)NC(=O)[C@H](CO)NC(=O)[C@@H](Cc2ccc(O)cc2)NC(=O)CSC[C@@H](C(N)=O)NC(=O)CNC(=O)[C@H](CCCNC(=N)N)NC1=O [CP-06-T4A] (HELM PEPTIDE1{[O=C(C[*:3])[*:2]].[dY].S.W.A.W.G.N.R.S.S.V.R.G.C.[am]}$PEPTIDE1,PEPTIDE1,1:R3-15:R3$$$V2.0)
Kd [1]: 18 nM

CC(C)[C@@H]1NC(=O)[C@H](CO)NC(=O)[C@H](CO)NC(=O)[C@H](CCCNC(=N)N)NC(=O)[C@H](CC(N)=O)NC(=O)CNC(=O)[C@H](Cc2c[nH]c3ccccc23)NC(=O)[C@H]([C@@H](C)O)NC(=O)[C@H](Cc2c[nH]c3ccccc23)NC(=O)[C@H](CO)NC(=O)[C@H](C)NC(=O)CSC[C@@H](C(N)=O)NC(=O)CNC(=O)[C@H](CCCNC(=N)N)NC1=O [CP-06-d-Y1A] (HELM PEPTIDE1{[O=C(C[*:3])[*:2]].A.S.W.T.W.G.N.R.S.S.V.R.G.C.[am]}$PEPTIDE1,PEPTIDE1,1:R3-15:R3$$$V2.0)
Kd [1]: 668 nM | Kd (Ala scan of CP-06, SPR, n = 1, read-out: PKD (converted)): 676 nM | fold decrease in KD (fold loss in binding affinity) (Ala scan vs CP-06, SPR, n = 1, Figure 3b and text): ~60 fold | Fold Change (fold decrease in KD vs CP-06, Ala scan): 61

CC(C)[C@@H]1NC(=O)[C@H](CO)NC(=O)[C@H](CO)NC(=O)[C@H](CCCNC(=N)N)NC(=O)[C@H](C)NC(=O)CNC(=O)[C@H](Cc2c[nH]c3ccccc23)NC(=O)[C@H]([C@@H](C)O)NC(=O)[C@H](Cc2c[nH]c3ccccc23)NC(=O)[C@H](CO)NC(=O)[C@@H](Cc2ccc(O)cc2)NC(=O)CSC[C@@H](C(N)=O)NC(=O)CNC(=O)[C@H](CCCNC(=N)N)NC1=O [CP-06-N7A] (HELM PEPTIDE1{[O=C(C[*:3])[*:2]].[dY].S.W.T.W.G.A.R.S.S.V.R.G.C.[am]}$PEPTIDE1,PEPTIDE1,1:R3-15:R3$$$V2.0)
Kd [1]: 209 nM

CC[C@H](C)[C@@H]1NC(=O)[C@H](CCC(N)=O)NC(=O)[C@H](CCCNC(=N)N)NC(=O)[C@H](CC(N)=O)NC(=O)CNC(=O)[C@H](Cc2c[nH]c3ccccc23)NC(=O)[C@H](C)NC(=O)[C@H](CO)NC(=O)[C@@H](Cc2ccc(O)cc2)NC(=O)CSC[C@@H](C(N)=O)NC(=O)[C@H](Cc2ccc(O)cc2)NC(=O)[C@H](Cc2ccc(O)cc2)NC(=O)[C@H](CCC(N)=O)NC1=O [CP-03] (HELM PEPTIDE1{[O=C(C[*:3])[*:2]].[dY].S.A.W.G.N.R.Q.I.Q.Y.Y.C.[am]}$PEPTIDE1,PEPTIDE1,1:R3-14:R3$$$V2.0)
Kd [2]: 23.4 ± 0.7 nM

CC(C)[C@@H]1NC(=O)[C@H](CO)NC(=O)[C@H](CO)NC(=O)[C@H](CCCNC(=N)N)NC(=O)[C@H](CC(N)=O)NC(=O)CNC(=O)[C@H](Cc2c[nH]c3ccccc23)NC(=O)[C@H]([C@@H](C)O)NC(=O)[C@H](Cc2c[nH]c3ccccc23)NC(=O)[C@H](C)NC(=O)[C@@H](Cc2ccc(O)cc2)NC(=O)CSC[C@@H](C(N)=O)NC(=O)CNC(=O)[C@H](CCCNC(=N)N)NC1=O [CP-06-S2A] (HELM PEPTIDE1{[O=C(C[*:3])[*:2]].[dY].A.W.T.W.G.N.R.S.S.V.R.G.C.[am]}$PEPTIDE1,PEPTIDE1,1:R3-15:R3$$$V2.0)
Kd [1]: 13 nM

C[C@@H]1NC(=O)[C@H](CO)NC(=O)[C@@H](Cc2ccc(O)cc2)NC(=O)CSC[C@@H](C(N)=O)NC(=O)[C@H](Cc2ccc(O)cc2)NC(=O)[C@H](Cc2ccc(O)cc2)NC(=O)[C@H](CCC(N)=O)NC(=O)[C@H]([C@@H](C)O)NC(=O)[C@H](CCC(N)=O)NC(=O)[C@H](CCCNC(=N)N)NC(=O)[C@H](CC(N)=O)NC(=O)CNC(=O)[C@H](Cc2c[nH]c3ccccc23)NC1=O [CP-13] (HELM PEPTIDE1{[O=C(C[*:3])[*:2]].[dY].S.A.W.G.N.R.Q.T.Q.Y.Y.C.[am]}$PEPTIDE1,PEPTIDE1,1:R3-14:R3$$$V2.0)
Kd [2]: 10.8 ± 0.7 nM

CC(C)[C@@H]1NC(=O)[C@H](CO)NC(=O)[C@H](CO)NC(=O)[C@H](CCCNC(=N)N)NC(=O)[C@H](CC(N)=O)NC(=O)CNC(=O)[C@H](Cc2c[nH]c3ccccc23)NC(=O)[C@H]([C@@H](C)O)NC(=O)[C@H](Cc2c[nH]c3ccccc23)NC(=O)[C@H](CO)NC(=O)[C@@H](Cc2ccc(O)cc2)NC(=O)CSC[C@@H](C(N)=O)NC(=O)[C@H](C)NC(=O)[C@H](CCCNC(=N)N)NC1=O [CP-06-G13A] (HELM PEPTIDE1{[O=C(C[*:3])[*:2]].[dY].S.W.T.W.G.N.R.S.S.V.R.A.C.[am]}$PEPTIDE1,PEPTIDE1,1:R3-15:R3$$$V2.0)
Kd [1]: 678 nM

CC(C)[C@@H]1NC(=O)[C@H](Cc2c[nH]cn2)NC(=O)[C@@H](Cc2ccc(O)cc2)NC(=O)CSC[C@@H](C(N)=O)NC(=O)CNC(=O)[C@H](CCCNC(=N)N)NC(=O)[C@H]([C@@H](C)O)NC(=O)[C@H](Cc2ccccc2)NC(=O)[C@H](CO)NC(=O)[C@H](CCCNC(=N)N)NC(=O)[C@H](CC(N)=O)NC(=O)CNC(=O)[C@H](Cc2ccccc2)NC1=O [CP-04] (HELM PEPTIDE1{[O=C(C[*:3])[*:2]].[dY].H.V.F.G.N.R.S.F.T.R.G.C.[am]}$PEPTIDE1,PEPTIDE1,1:R3-14:R3$$$V2.0)
Kd [2]: 11.9 ± 0.3 nM
